The molecules below were run against T1, hFXR (Homo sapiens, UniProt Q96RI1) (assay: In Vitro FXR Assay (TK): TK-ECRE-luc reporter in transfected CV-1 cells). Conditions: 18 hrs, luminescence, maximum efficacy of <25% of the Fexarmine control classified as '+'.
T1 construct: expressed in transfected cells; host or cells: CV-1 cells
T1 sequence (Q96RI1 1-486): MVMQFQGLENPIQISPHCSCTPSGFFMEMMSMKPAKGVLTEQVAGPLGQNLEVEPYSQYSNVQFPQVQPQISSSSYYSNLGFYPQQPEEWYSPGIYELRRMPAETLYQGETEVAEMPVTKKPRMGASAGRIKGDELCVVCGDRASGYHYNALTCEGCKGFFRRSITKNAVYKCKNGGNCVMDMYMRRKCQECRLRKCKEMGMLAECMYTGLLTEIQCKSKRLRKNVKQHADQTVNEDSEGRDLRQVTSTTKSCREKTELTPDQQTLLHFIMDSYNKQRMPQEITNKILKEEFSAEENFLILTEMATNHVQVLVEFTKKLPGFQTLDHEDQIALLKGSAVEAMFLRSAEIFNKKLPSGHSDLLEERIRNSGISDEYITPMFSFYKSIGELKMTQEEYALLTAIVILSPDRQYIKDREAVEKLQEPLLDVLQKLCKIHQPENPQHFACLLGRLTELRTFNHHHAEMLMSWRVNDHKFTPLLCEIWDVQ
T1 sequence (P19793 1-462 partner): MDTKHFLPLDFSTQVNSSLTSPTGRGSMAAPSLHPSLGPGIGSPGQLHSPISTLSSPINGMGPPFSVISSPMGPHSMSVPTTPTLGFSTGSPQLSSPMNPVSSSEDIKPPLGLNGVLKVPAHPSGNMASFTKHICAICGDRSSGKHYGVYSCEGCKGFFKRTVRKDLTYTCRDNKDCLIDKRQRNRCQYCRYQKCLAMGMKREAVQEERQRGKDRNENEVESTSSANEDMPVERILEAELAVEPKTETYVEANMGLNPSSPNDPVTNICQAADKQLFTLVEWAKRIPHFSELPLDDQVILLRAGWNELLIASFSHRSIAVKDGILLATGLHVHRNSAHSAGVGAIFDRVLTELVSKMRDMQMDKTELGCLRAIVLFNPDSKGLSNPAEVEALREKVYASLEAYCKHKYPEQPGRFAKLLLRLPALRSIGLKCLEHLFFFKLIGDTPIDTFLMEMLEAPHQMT
Assay type: cell-based
Summary of the method: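 CV-1 cells in DMEM with 10% charcoal-stripped FBS were co-transfected with hFXR, hRXR, TK-ECRE-luc reporter and pCMX-YFP plasmids. After 18 h, compounds serially diluted in DMSO were added for a further 18 h, then cells were lysed and luminescence read.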

SMILES	EC50
COc1ncc(-c2cccc(N(C[C@H]3CC[C@H](c4ccc(OC)c(C)c4)CC3)C(=O)[C@H]3CC[C@H](CNS(C)(=O)=O)CC3)c2)s1 [Compound 25.08, trans-N-((trans-4-(4-Methoxy-3-methylphenyl)cyclohexyl)methyl)-N-(3-(2-methoxythiazol-5-yl)phenyl)-4-(methylsulfonamidomethyl) cyclohexanecarboxamide]	≤ 250 nM
CNC(=O)O[C@H]1CC[C@H](C(=O)N(C[C@H]2CC[C@H](c3ccc(OC)c(C)c3)CC2)c2cccc(-c3cnn(C4CC4)c3)c2)CC1 [Compound 1.04, trans-4-((3-(1-Cyclopropyl-1H-pyrazol-4-yl)phenyl)((trans-4-(4-methoxy-3-methylphenyl)cyclohexyl)methyl)carbamoyl)cyclohexyl methylcarbamate]	≤ 250 nM
C#CC1CN(C(=O)O[C@H]2CC[C@H](C(=O)N(C[C@H]3CC[C@H](c4ccc(OC)c(C)n4)CC3)c3cc(-c4coc(C5CC5)n4)ccn3)CC2)C1 [Compound 7.98, trans-4-((4-(2-Cyclopropyloxazol-4-yl)pyridine-2-yl)((trans-4-(5-methoxy-6-methylpyridin-2-yl)cyclohexyl)methyl)carbamoyl)cyclohexyl 3-ethynylazetidine-1-carboxylate]	≤ 250 nM
COc1ccc([C@H]2CC[C@H](CN(c3cc(-c4cnn(C(C)C)c4)ccn3)C(=O)[C@H]3CC[C@H](OC(=O)N4CC(CO)C4)CC3)CC2)nc1C [Compound 7.59, trans-4-((4-(1-Isopropyl-1H-pyrazol-4-yl)pyridin-2-yl)((trans-4-(5-methoxy-6-methylpyridin-2-yl)cyclohexyl)methyl)carbamoyl)cyclohexyl 3-(hydroxymethyl)azetidine-1-carboxylate]	≤ 250 nM
